Article PMC9329436, “Optimization of the 4-anilinoquin(az)oline scaffold as epidermal growth factor receptor (EGFR) inhibitors for chordoma utilizing a toxicology profiling assay platform” (Scientific Reports, 2022)
Like-named read-outs stand apart in the source and are kept apart here.

Columns and labels:
Assay type in all cases: biochemical
[1] = target: T1, 320 wild-type protein kinases (Homo sapiens, UniProt P42679); settings: MATK, singlicate
T1 sequence (P42679 1-507): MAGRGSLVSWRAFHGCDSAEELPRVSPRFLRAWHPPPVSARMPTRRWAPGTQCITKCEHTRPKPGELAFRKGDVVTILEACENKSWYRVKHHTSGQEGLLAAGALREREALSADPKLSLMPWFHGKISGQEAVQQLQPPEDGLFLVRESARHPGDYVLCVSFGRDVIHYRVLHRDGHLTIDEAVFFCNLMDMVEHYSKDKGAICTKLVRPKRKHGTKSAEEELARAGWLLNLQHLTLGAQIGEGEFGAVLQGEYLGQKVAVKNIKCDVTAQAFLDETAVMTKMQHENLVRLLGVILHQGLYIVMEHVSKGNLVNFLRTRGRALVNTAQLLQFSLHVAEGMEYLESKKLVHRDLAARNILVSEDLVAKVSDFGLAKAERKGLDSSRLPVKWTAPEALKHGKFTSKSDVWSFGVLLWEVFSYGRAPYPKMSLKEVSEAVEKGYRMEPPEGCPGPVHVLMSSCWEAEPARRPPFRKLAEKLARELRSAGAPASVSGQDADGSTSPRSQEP
Text: (§1) Table S4. Profiling of two compounds at two concentrations against 320 wild-type protein kinases; singlicate measurement; Residual activities (% of control).

[2] = target: 320 wild-type protein kinases (Homo sapiens, UniProt P42345); settings: mTOR, singlicate
Text: as §1

[3] = target: 320 wild-type protein kinases (Homo sapiens, UniProt P36507); settings: singlicate
Chain of 320 wild-type protein kinases (Homo sapiens, UniProt P36507) (P36507 whole entry): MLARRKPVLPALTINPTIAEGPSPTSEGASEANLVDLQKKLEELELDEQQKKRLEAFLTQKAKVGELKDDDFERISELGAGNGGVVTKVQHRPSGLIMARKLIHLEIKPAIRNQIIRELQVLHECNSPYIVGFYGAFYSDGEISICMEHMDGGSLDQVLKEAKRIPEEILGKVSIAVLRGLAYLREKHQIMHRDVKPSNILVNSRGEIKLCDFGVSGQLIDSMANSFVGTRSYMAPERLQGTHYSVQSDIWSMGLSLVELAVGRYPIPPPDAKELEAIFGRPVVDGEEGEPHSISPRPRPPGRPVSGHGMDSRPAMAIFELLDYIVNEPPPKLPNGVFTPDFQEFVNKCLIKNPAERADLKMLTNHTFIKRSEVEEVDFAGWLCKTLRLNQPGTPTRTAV
Text: as §1

[4] = target: 320 wild-type protein kinases (Homo sapiens, UniProt P29376); settings: LTK, singlicate
Chain of 320 wild-type protein kinases (Homo sapiens, UniProt P29376) (P29376 17-864): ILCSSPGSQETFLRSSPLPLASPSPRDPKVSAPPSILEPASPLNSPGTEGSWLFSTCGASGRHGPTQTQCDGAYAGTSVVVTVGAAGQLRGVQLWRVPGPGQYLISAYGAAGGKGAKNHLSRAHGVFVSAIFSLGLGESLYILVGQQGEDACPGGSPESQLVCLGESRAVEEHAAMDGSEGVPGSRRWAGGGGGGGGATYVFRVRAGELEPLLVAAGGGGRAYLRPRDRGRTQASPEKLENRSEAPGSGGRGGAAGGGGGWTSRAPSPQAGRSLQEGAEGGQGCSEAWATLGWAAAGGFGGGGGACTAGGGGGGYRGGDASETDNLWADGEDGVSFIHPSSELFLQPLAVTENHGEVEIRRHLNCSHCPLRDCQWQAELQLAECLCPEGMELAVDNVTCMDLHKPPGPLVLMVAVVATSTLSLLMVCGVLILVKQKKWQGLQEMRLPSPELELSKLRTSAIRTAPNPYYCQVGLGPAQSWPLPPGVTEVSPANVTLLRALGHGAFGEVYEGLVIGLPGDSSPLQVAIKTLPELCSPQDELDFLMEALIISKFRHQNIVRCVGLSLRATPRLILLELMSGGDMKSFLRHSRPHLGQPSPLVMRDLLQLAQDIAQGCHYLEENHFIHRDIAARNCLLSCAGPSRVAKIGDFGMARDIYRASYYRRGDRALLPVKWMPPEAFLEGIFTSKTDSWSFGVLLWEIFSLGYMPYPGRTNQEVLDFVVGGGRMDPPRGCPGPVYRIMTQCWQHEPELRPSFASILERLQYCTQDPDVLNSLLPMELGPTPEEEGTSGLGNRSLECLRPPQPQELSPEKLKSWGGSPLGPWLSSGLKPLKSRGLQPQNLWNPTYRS
Text: as §1

[5] = target: 320 wild-type protein kinases (Homo sapiens, UniProt Q13627); settings: DYRK1A, singlicate
Text: as §1

[6] = target: 320 wild-type protein kinases (Homo sapiens, UniProt Q96RR4); settings: singlicate
Chain of 320 wild-type protein kinases (Homo sapiens, UniProt Q96RR4) (Q96RR4 whole entry): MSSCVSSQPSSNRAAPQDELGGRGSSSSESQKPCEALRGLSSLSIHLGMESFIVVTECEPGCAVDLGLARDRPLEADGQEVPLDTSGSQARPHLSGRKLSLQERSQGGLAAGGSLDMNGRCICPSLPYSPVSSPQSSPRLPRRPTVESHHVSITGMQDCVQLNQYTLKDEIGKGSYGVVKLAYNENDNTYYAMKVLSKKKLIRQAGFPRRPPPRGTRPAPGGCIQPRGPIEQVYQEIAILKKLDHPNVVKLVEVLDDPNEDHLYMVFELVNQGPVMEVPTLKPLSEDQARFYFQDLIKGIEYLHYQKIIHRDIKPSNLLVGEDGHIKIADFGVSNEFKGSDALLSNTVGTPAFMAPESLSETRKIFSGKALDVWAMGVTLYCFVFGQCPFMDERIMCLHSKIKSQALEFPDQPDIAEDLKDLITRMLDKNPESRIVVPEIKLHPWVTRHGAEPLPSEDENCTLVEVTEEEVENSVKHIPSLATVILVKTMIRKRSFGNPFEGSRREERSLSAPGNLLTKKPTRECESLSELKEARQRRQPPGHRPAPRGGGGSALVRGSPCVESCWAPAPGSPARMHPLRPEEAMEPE
Text: as §1

[7] = target: 320 wild-type protein kinases (Homo sapiens, UniProt Q86V86); settings: singlicate
Text: as §1

[8] = target: 320 wild-type protein kinases (Homo sapiens, UniProt Q15746); settings: MYLK, singlicate
Chain of 320 wild-type protein kinases (Homo sapiens, UniProt Q15746) (Q15746 whole entry): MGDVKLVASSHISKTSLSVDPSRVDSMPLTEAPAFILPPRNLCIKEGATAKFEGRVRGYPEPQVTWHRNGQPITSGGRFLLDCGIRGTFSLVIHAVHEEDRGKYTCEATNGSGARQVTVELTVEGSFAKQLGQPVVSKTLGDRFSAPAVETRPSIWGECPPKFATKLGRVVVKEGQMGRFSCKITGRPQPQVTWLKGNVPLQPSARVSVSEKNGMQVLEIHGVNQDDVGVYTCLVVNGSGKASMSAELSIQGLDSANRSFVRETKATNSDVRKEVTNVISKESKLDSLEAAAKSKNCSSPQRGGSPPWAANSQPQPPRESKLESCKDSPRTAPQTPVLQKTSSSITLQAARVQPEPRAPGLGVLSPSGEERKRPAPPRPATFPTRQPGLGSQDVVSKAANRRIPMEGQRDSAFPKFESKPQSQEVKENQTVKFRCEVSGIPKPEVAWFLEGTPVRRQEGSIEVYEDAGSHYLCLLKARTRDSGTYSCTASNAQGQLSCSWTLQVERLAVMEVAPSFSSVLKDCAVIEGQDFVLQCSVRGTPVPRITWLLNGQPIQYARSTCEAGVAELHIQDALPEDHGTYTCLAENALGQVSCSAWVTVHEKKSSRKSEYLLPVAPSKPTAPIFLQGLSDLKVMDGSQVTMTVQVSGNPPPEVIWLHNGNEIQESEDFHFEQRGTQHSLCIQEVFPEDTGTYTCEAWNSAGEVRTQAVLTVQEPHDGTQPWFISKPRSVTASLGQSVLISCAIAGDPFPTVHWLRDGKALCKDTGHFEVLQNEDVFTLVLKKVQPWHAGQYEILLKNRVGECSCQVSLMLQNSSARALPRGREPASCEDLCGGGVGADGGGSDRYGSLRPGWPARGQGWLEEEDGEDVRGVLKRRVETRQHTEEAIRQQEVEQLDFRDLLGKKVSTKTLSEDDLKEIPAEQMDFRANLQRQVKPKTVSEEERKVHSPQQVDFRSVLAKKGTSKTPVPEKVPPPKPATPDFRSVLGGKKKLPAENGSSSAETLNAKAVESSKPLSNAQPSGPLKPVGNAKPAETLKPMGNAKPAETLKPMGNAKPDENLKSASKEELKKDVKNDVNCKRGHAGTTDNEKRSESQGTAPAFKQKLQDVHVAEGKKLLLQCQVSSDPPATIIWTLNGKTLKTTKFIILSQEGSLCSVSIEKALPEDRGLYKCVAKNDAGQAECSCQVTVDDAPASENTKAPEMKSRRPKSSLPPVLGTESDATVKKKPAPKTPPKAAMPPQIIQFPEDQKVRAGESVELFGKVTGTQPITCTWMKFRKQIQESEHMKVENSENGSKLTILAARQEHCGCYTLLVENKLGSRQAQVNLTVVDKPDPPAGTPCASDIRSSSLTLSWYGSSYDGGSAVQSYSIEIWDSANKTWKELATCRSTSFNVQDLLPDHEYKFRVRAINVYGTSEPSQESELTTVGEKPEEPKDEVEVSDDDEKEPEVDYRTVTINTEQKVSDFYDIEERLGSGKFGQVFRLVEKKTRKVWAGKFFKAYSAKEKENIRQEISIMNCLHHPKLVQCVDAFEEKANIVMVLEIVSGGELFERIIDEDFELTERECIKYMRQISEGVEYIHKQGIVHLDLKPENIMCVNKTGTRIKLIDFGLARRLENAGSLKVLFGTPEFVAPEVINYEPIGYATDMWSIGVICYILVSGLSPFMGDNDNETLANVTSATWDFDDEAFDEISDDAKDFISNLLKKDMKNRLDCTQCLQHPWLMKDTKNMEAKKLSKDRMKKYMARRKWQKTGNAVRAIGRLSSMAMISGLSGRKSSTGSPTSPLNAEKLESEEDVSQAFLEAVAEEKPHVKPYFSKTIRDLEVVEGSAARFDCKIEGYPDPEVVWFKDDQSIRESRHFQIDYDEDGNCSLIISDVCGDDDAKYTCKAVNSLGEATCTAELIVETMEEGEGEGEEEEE
Text: as §1

[9] = target: 320 wild-type protein kinases (Homo sapiens, UniProt Q13882); settings: BRK, singlicate
Chain of 320 wild-type protein kinases (Homo sapiens, UniProt Q13882) (Q13882 whole entry): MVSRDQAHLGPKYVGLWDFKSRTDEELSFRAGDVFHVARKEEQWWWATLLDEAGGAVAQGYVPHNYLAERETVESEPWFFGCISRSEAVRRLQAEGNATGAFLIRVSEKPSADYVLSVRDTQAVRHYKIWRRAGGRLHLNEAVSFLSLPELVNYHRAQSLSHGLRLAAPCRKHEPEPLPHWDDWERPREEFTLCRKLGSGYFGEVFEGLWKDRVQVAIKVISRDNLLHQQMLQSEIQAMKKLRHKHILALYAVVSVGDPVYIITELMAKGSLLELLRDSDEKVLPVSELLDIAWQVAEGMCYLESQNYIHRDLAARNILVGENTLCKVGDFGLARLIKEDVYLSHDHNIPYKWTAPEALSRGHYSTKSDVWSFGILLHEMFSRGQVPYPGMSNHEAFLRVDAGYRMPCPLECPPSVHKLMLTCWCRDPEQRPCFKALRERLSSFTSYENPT
Text: as §1

[10] = target: T2, 320 wild-type protein kinases (Homo sapiens, UniProt Q9UEE5); settings: kinase STK17A, singlicate
T2 sequence (Q9UEE5 1-414): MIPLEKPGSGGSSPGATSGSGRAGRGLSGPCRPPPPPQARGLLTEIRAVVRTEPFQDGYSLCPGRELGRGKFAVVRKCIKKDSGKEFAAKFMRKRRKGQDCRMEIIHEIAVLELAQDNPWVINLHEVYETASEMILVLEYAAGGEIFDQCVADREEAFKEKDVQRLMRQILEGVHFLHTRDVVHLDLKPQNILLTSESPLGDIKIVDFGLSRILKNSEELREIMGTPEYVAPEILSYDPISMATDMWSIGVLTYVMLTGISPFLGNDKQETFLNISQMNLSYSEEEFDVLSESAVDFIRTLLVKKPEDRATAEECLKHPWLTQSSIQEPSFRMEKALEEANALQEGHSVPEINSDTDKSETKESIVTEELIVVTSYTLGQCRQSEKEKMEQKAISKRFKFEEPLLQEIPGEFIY
Text: as §1

[11] = target: 320 wild-type protein kinases (Homo sapiens, UniProt Q9UM73); settings: ALK (GST-HIS-tag), singlicate
Text: as §1

[12] = target: 320 wild-type protein kinases (Homo sapiens, UniProt Q86Y07); settings: kinase VRK2, singlicate
Chain of 320 wild-type protein kinases (Homo sapiens, UniProt Q86Y07) (Q86Y07 whole entry): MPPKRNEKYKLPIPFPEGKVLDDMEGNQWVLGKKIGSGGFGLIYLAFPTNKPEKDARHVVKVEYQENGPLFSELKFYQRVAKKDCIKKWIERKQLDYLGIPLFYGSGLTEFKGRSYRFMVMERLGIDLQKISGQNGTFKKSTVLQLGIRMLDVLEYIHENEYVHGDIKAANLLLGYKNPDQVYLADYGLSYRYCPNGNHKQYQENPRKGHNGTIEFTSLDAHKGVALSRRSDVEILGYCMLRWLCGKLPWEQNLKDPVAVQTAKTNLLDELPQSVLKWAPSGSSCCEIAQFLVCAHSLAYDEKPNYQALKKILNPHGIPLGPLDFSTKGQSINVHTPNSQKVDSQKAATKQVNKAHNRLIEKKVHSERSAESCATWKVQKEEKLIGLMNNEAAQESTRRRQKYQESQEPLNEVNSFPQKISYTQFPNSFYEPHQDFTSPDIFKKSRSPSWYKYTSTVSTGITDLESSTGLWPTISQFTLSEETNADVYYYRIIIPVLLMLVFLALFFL
Text: as §1

[13] = target: T3, 320 wild-type protein kinases (Homo sapiens, UniProt Q96L34); settings: singlicate
T3 sequence (Q96L34 1-752): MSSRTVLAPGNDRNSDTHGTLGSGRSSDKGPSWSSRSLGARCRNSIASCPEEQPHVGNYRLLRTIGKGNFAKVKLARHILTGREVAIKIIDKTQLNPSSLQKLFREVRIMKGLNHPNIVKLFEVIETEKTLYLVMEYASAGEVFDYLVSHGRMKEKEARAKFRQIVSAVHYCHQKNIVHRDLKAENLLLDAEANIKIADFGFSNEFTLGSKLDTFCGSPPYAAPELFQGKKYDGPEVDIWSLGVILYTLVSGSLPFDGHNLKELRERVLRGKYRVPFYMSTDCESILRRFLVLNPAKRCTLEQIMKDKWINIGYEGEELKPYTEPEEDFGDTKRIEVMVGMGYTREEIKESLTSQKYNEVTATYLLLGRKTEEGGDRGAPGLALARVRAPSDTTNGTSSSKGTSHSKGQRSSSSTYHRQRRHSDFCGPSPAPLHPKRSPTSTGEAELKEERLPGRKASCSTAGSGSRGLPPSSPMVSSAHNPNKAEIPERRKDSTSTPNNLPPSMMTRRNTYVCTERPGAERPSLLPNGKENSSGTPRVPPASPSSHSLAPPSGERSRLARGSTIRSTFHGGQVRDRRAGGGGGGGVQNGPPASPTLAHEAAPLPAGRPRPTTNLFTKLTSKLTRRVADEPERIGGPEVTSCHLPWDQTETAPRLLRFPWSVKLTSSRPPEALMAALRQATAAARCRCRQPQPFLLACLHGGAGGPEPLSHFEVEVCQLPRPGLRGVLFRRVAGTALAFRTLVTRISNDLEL
Text: as §1

## C#Cc1cc(Nc2ncnc3cc(I)ccc23)ccc1Cl [Compound 41]
[1]; 1.0E-06 M
  Residual activity: 95 % of control
[1]; 1.0E-07 M
  Residual activity: 100 % of control
[2]; 1.0E-06 M
  Residual activity: 84 % of control
[2]; 1.0E-07 M
  Residual activity: 97 % of control
[3]; MEK2, 1.0E-06 M
  Residual activity: 80 % of control
[3]; MEK2, 1.0E-07 M
  Residual activity: 101 % of control
[4]; 1.0E-06 M
  Residual activity: 77 % of control
[4]; 1.0E-07 M
  Residual activity: 106 % of control
[5]; 1.0E-06 M
  Residual activity: 75 % of control
[5]; 1.0E-07 M
  Residual activity: 84 % of control
[6]; CAMKK2, 1.0E-06 M
  Residual activity: 71 % of control
[6]; CAMKK2, 1.0E-07 M
  Residual activity: 96 % of control
[7]; PIM3, 1.0E-06 M
  Residual activity: 83 % of control
[7]; PIM3, 1.0E-07 M
  Residual activity: 81 % of control
[8]; 1.0E-06 M
  Residual activity: 58 % of control
[8]; 1.0E-07 M
  Residual activity: 98 % of control
[9]; 1.0E-06 M
  Residual activity: 110 % of control
[9]; 1.0E-07 M
  Residual activity: 100 % of control
[10]; assay conc. 1.0E-06 M
  Residual activity, STK17A: 103 % of control
[10]; assay conc. 1.0E-07 M
  Residual activity, STK17A: 104 % of control
[11]; 1.0E-06 M
  Residual activity: 93 % of control
[11]; 1.0E-07 M
  Residual activity: 102 % of control
[12]; assay conc. 1.0E-06 M
  Residual activity, VRK2: 97 % of control
[12]; assay conc. 1.0E-07 M
  Residual activity, VRK2: 95 % of control
[13]; MARK4, 1.0E-06 M
  Residual activity: 114 % of control
[13]; MARK4, 1.0E-07 M
  Residual activity: 111 % of control

## C#Cc1cc(Nc2ncnc3cc(OC)c(OC)cc23)ccc1Cl [Compound 45]
[1]; 1.0E-06 M
  Residual activity: 95 % of control
[1]; 1.0E-07 M
  Residual activity: 108 % of control
[2]; 1.0E-06 M
  Residual activity: 91 % of control
[2]; 1.0E-07 M
  Residual activity: 106 % of control
[3]; MEK2, 1.0E-06 M
  Residual activity: 105 % of control
[3]; MEK2, 1.0E-07 M
  Residual activity: 102 % of control
[4]; 1.0E-06 M
  Residual activity: 54 % of control
[4]; 1.0E-07 M
  Residual activity: 100 % of control
[5]; 1.0E-06 M
  Residual activity: 91 % of control
[5]; 1.0E-07 M
  Residual activity: 85 % of control
[6]; CAMKK2, 1.0E-06 M
  Residual activity: 74 % of control
[6]; CAMKK2, 1.0E-07 M
  Residual activity: 79 % of control
[7]; PIM3, 1.0E-06 M
  Residual activity: 53 % of control
[7]; PIM3, 1.0E-07 M
  Residual activity: 81 % of control
[8]; 1.0E-06 M
  Residual activity: 71 % of control
[8]; 1.0E-07 M
  Residual activity: 92 % of control
[9]; 1.0E-06 M
  Residual activity: 70 % of control
[9]; 1.0E-07 M
  Residual activity: 96 % of control
[10]; assay conc. 1.0E-06 M
  Residual activity, STK17A: 83 % of control
[10]; assay conc. 1.0E-07 M
  Residual activity, STK17A: 102 % of control
[11]; 1.0E-06 M
  Residual activity: 63 % of control
[11]; 1.0E-07 M
  Residual activity: 102 % of control
[12]; assay conc. 1.0E-06 M
  Residual activity, VRK2: 232 % of control
[12]; assay conc. 1.0E-07 M
  Residual activity, VRK2: 87 % of control
[13]; MARK4, 1.0E-06 M
  Residual activity: 115 % of control
[13]; MARK4, 1.0E-07 M
  Residual activity: 110 % of control
